Laboratory results: ChEMBL document CHEMBL5505963, “Novel berberine derivatives as p300 histone acetyltransferase inhibitors in combination treatment for breast cancer” (Eur J Med Chem, 2024)
Each block holds one compound with its values, some of them ahead of it. The source made the active and inactive calls. No cut-off for these calls is given here.

Assays:
[1] = target: Histone acetyltransferase p300 (Homo sapiens, UniProt Q09472); test: Inhibition of p300 HAT (unknown origin) using 3H-acetyl-CoA as substrate assessed as H3 peptide acetylation preincubated with compound for 15 mins followed by substrate addition and measured after 30 mins by microbeta scintillation counter analysis
[2] = system: MCF7; test: Antiproliferative activity against human MCF7 cells assessed as inhibition of cell growth incubated for 48 hrs by MTT assay; assay type: functional, cell-based; conditions: MCF7, 48 h
[3] = system: LNCaP; test: Antiproliferative activity against human LNCaP cells assessed as inhibition of cell growth incubated for 48 hrs by MTT assay; assay type: functional, cell-based
[4] = system: PANC-1; test: Antiproliferative activity against human PANC-1 cells assessed as inhibition of cell growth incubated for 48 hrs by MTT assay; assay type: functional, cell-based; conditions: PANC-1, 48 h
[5] = system: MCF-10A; test: Antiproliferative activity against human MCF-10A cells assessed as inhibition of cell growth incubated for 48 hrs by MTT assay; assay type: functional, cell-based
[6] = system: MCF7; test: Antiproliferative activity against human MCF7 cells assessed as inhibition of cell proliferation incubated for 48 hrs by MTT assay; assay type: functional, cell-based; conditions: MCF7, 48 h
[7] = system: MCF7; test: Synergistic antiproliferative activity against human MCF7 cells assessed as combination index at 5 uM incubated for 48 hrs in presence of 0.5 microg/ml doxorubicin by Chou-Talalay method; assay type: functional
[8] = system: MCF7; test: Synergistic antiproliferative activity against human MCF7 cells assessed as combination index at 5 uM incubated for 48 hrs in presence of 1 microg/ml doxorubicin by Chou-Talalay method; assay type: functional
[9] = system: MCF7; test: Synergistic antiproliferative activity against human MCF7 cells assessed as combination index at 5 uM incubated for 48 hrs in presence of 1.5 microg/ml doxorubicin by Chou-Talalay method; assay type: functional
[10] = system: MCF7; test: Synergistic antiproliferative activity against human MCF7 cells assessed as combination index at 5 uM incubated for 48 hrs in presence of 2 microg/ml doxorubicin by Chou-Talalay method; assay type: functional
[11] = system: MCF7; test: Synergistic antiproliferative activity against human MCF7 cells assessed as combination index at 5 uM incubated for 48 hrs in presence of 2.5 microg/ml doxorubicin by Chou-Talalay method; assay type: functional
[12] = system: MCF7; test: Synergistic antiproliferative activity against human MCF7 cells assessed as combination index at 5 uM incubated for 48 hrs in presence of 3 microg/ml doxorubicin by Chou-Talalay method; assay type: functional
[13] = system: MCF7; test: Synergistic antiproliferative activity against human MCF7 cells assessed as combination index at 10 uM incubated for 48 hrs in presence of 0.5 microg/ml doxorubicin by Chou-Talalay method; assay type: functional
[14] = system: MCF7; test: Synergistic antiproliferative activity against human MCF7 cells assessed as combination index at 10 uM incubated for 48 hrs in presence of 1 microg/ml doxorubicin by Chou-Talalay method; assay type: functional
[15] = system: MCF7; test: Synergistic antiproliferative activity against human MCF7 cells assessed as combination index at 10 uM incubated for 48 hrs in presence of 1.5 microg/ml doxorubicin by Chou-Talalay method; assay type: functional
[16] = system: MCF7; test: Synergistic antiproliferative activity against human MCF7 cells assessed as combination index at 10 uM incubated for 48 hrs in presence of 2 microg/ml doxorubicin by Chou-Talalay method; assay type: functional
[17] = system: MCF7; test: Synergistic antiproliferative activity against human MCF7 cells assessed as combination index at 10 uM incubated for 48 hrs in presence of 2.5 microg/ml doxorubicin by Chou-Talalay method; assay type: functional
[18] = system: MCF7; test: Synergistic antiproliferative activity against human MCF7 cells assessed as combination index at 10 uM incubated for 48 hrs in presence of 3 microg/ml doxorubicin by Chou-Talalay method; assay type: functional
[19] = system: MCF7; test: Synergistic antiproliferative activity against human MCF7 cells assessed as combination index at 20 uM incubated for 48 hrs in presence of 0.5 microg/ml doxorubicin by Chou-Talalay method; assay type: functional
[20] = system: MCF7; test: Synergistic antiproliferative activity against human MCF7 cells assessed as combination index at 20 uM incubated for 48 hrs in presence of 1 microg/ml doxorubicin by Chou-Talalay method; assay type: functional
[21] = system: MCF7; test: Synergistic antiproliferative activity against human MCF7 cells assessed as combination index at 20 uM incubated for 48 hrs in presence of 1.5 microg/ml doxorubicin by Chou-Talalay method; assay type: functional
[22] = system: MCF7; test: Synergistic antiproliferative activity against human MCF7 cells assessed as combination index at 20 uM incubated for 48 hrs in presence of 2 microg/ml doxorubicin by Chou-Talalay method; assay type: functional
[23] = system: MCF7; test: Synergistic antiproliferative activity against human MCF7 cells assessed as combination index at 20 uM incubated for 48 hrs in presence of 2.5 microg/ml doxorubicin by Chou-Talalay method; assay type: functional
[24] = system: MCF7; test: Synergistic antiproliferative activity against human MCF7 cells assessed as combination index at 20 uM incubated for 48 hrs in presence of 3 microg/ml doxorubicin by Chou-Talalay method; assay type: functional
[25] = system: MCF7; test: Synergistic antiproliferative activity against human MCF7 cells assessed as combination index at 40 uM incubated for 48 hrs in presence of 0.5 microg/ml doxorubicin by Chou-Talalay method; assay type: functional
[26] = system: MCF7; test: Synergistic antiproliferative activity against human MCF7 cells assessed as combination index at 40 uM incubated for 48 hrs in presence of 1 microg/ml doxorubicin by Chou-Talalay method; assay type: functional
[27] = system: MCF7; test: Synergistic antiproliferative activity against human MCF7 cells assessed as combination index at 40 uM incubated for 48 hrs in presence of 1.5 microg/ml doxorubicin by Chou-Talalay method; assay type: functional
[28] = system: MCF7; test: Synergistic antiproliferative activity against human MCF7 cells assessed as combination index at 40 uM incubated for 48 hrs in presence of 2 microg/ml doxorubicin by Chou-Talalay method; assay type: functional
[29] = system: MCF7; test: Synergistic antiproliferative activity against human MCF7 cells assessed as combination index at 40 uM incubated for 48 hrs in presence of 2.5 microg/ml doxorubicin by Chou-Talalay method; assay type: functional
[30] = system: MCF7; test: Synergistic antiproliferative activity against human MCF7 cells assessed as combination index at 40 uM incubated for 48 hrs in presence of 3 microg/ml doxorubicin by Chou-Talalay method; assay type: functional
[31] = system: MCF7; test: Downregulation of H3K27 level in human MCF7 cells incubated for 24 hrs by Western blot analysis; assay type: functional, cell-based; conditions: dose <= 160.0 µM
[32] = system: MCF7; test: Downregulation of H3K27 level in human MCF7 cells upto 160 uM incubated for 24 hrs in presence of doxorubicin by Western blot analysis; assay type: functional, cell-based
[33] = system: MCF7; test: Induction of apoptosis in human MCF7 cells assessed as upregulation of cleaved caspase 3 level at 40 uM incubated for 24 hrs in presence of doxorubicin by Western blot analysis; assay type: functional, cell-based
[34] = system: MCF7; test: Induction of apoptosis in human MCF7 cells assessed as upregulation of cleaved PARP level at 40 uM incubated for 24 hrs in presence of doxorubicin by Western blot analysis; assay type: functional, cell-based
[35] = system: MCF7; test: Downregulation of c-Myc level in human MCF7 cells at 40 uM incubated for 24 hrs in presence of doxorubicin by Western blot analysis; assay type: functional, cell-based
[36] = system: MCF7; test: Downregulation of survivin level in human MCF7 cells at 40 uM incubated for 24 hrs in presence of doxorubicin by Western blot analysis; assay type: functional, cell-based
[37] = system: MCF7; test: Inhibition of cell migration in human MCF7 cells assessed as reduction in scratch measured after 24 hrs by microscopic analysis; assay type: functional
[38] = system: MCF7; test: Inhibition of cell migration in human MCF7 cells assessed as measured after 24 hrs in presence of doxorubicin by microscopic analysis; assay type: functional
[39] = system: MCF7; test: Inhibition of cell invasion in human MCF7 cells measured after 24 hrs by crystal violet staining based microscopic analysis; assay type: functional
[40] = system: MCF7; test: Inhibition of cell invasion in human MCF7 cells measured after 24 hrs in presence of doxorubicin by crystal violet staining based microscopic analysis; assay type: functional
[41] = system: MCF7; test: Antitumor activity against human MCF7 cells xenografted in BALB/c nude mouse assessed as tumor growth inhibition at 50 mg/kg, ip measured upto 14 days; assay type: functional; conditions: MCF7, 336 h, time <= 14 day, read-out: TGI
[42] = system: MCF7; test: Antitumor activity against human MCF7 cells xenografted in BALB/c nude mouse assessed as tumor growth inhibition at 50 mg/kg, ip measured upto 14 days in presence of doxorubicin; assay type: functional; conditions: MCF7, 336 h, time <= 14 day, read-out: TGI
[43] = Toxicity in BALB/c nude mouse xenografted with human MCF7 cells assessed as loss of body weight at 50 mg/kg, ip measured upto 14 days; assay type: organism-based; conditions: in vivo, 336 h, time < 14 day
[44] = system: MCF7; test: Synergistic antiproliferative activity against human MCF7 cells assessed as reduction in cell viability at 5 to 20 uM incubated for 48 hrs in presence of 1 microg/ml doxorubicin by MTT assay; assay type: functional; conditions: dose 5-20 µM
[45] = system: MCF7; test: Synergistic antiproliferative activity against human MCF7 cells assessed as reduction in cell viability at 5 to 20 uM incubated for 48 hrs in presence of 40 microg/ml doxorubicin by MTT assay; assay type: functional; conditions: dose 5-20 µM
[46] = system: MCF7; test: Synergistic antiproliferative activity against human MCF7 cells assessed as reduction in cell viability at 5 to 20 uM incubated for 48 hrs in presence of 2.5 microg/ml doxorubicin by MTT assay; assay type: functional; conditions: dose 5-20 µM

Sequence of Histone acetyltransferase p300 (Q09472 whole entry): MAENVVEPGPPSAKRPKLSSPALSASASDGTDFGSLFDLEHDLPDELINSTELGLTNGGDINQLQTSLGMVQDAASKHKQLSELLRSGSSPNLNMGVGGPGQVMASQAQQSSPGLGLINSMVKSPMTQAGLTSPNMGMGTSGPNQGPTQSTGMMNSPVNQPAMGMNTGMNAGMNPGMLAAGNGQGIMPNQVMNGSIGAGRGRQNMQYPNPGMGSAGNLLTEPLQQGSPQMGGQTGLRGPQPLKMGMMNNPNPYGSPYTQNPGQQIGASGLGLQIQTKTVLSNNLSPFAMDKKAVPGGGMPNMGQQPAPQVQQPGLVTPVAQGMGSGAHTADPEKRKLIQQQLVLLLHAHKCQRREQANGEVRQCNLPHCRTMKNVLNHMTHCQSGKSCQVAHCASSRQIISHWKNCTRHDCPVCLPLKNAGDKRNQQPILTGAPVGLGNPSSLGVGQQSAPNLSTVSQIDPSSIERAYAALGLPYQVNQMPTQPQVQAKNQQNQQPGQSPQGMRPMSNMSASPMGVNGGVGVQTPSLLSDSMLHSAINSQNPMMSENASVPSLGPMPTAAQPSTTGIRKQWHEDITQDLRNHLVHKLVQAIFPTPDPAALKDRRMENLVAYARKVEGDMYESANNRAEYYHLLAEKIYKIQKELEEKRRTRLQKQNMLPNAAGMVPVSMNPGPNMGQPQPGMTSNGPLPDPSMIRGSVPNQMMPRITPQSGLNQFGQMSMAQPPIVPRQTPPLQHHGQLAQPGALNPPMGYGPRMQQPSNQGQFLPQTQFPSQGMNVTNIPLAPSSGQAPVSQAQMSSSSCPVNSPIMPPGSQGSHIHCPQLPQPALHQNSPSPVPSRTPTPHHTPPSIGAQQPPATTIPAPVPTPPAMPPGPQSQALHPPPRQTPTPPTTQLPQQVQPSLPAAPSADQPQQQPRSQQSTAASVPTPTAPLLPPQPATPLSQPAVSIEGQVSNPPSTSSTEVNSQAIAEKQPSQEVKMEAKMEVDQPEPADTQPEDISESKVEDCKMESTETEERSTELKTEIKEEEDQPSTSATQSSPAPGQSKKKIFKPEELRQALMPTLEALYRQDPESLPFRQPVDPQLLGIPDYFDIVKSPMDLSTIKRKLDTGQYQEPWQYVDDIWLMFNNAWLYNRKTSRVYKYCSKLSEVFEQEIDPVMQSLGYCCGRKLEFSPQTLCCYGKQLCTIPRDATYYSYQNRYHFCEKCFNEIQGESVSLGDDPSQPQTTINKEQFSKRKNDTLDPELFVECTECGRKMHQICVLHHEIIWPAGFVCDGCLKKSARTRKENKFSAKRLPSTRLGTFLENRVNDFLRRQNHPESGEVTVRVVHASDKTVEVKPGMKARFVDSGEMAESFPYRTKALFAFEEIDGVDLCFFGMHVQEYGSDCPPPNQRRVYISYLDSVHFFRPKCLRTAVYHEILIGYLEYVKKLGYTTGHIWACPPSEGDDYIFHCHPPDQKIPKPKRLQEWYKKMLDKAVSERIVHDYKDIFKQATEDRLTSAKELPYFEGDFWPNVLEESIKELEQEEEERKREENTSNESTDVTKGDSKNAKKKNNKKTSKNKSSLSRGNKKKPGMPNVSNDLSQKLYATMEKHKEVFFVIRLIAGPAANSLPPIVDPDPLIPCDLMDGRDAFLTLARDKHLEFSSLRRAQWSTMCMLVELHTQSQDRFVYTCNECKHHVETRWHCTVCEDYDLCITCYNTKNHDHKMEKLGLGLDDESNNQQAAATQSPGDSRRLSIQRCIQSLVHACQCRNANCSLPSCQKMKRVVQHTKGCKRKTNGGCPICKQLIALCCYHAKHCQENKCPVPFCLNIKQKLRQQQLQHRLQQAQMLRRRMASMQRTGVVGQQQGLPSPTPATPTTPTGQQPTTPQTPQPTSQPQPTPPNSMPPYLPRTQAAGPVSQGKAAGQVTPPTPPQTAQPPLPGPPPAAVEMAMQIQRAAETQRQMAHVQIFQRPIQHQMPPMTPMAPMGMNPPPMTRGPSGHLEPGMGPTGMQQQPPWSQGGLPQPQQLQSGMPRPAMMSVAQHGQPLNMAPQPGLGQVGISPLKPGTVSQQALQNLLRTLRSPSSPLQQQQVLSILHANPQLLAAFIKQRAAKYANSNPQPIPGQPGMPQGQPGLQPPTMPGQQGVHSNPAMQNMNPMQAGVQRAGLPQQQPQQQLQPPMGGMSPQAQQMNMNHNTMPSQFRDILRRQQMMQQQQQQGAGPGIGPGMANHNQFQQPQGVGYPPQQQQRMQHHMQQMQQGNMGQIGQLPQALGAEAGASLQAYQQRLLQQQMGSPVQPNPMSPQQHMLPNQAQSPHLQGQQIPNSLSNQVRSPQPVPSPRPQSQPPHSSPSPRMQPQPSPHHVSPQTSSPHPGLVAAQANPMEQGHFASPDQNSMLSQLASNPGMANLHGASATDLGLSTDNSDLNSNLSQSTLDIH

IC50 [1]: 9.69 µM
Structure (SMILES): COc1cc2cc3[n+](cc2cc1OC)CCCNc1cc2c(cc1-3)OCO2

IC50 [1]: > 20 µM
Structure (SMILES): COc1cc2cc3[n+](cc2cc1OC)CCCCOc1cc2c(cc1-3)OCO2

IC50 [1]: > 20 µM
Structure (SMILES): COc1ccc2cc3[n+](cc2c1OC)CCCNc1cc2c(cc1-3)OCO2

IC50 [1]: 1.51 µM
IC50 [2]: 17.3 µM
IC50 [3]: 43.7 µM
IC50 [4]: > 50 µM
IC50 [6]: 17.3 µM
Structure (SMILES): COc1cc2cc3[n+](cc2cc1OC)CCOc1cc2c(cc1-3)OCO2.[Cl-]
IC50 [5]: > 50 µM
CI [7]: 517.04
CI [8]: 165.98
CI [9]: 94.38
CI [10]: 113.55
CI [11]: 57.34
CI [12]: 39.24
CI [13]: 88.25
CI [14]: 37.99
CI [15]: 38.44
CI [16]: 80.19
CI [17]: 12.07
CI [18]: 13.65
CI [19]: 3.11
CI [20]: 3.44
CI [21]: 3.59
CI [22]: 2.65
CI [23]: 2.28
CI [24]: 1.86
CI [25]: 1.85
CI [26]: 0.59
CI [27]: 0.57
CI [28]: 0.66
CI [29]: 0.6
CI [30]: 0.55
Activity [31]: Dose-Dependent Effect
Activity [32]: Active
Activity [33]: Active
Activity [34]: Active
Activity [35]: Active
Activity [36]: Active
inhibition (INH) [37]: 52.05%
inhibition (INH) [38]: 34.22%
inhibition [39]: Active
inhibition [40]: Active
inhibition in vivo at 50 mg/kg [41]: 59.9%
inhibition in vivo at 50 mg/kg [42]: 83.9%
Activity [43]: Non-Toxic
Activity [44]: 36%
Activity [45]: 36%
Activity [46]: 27%

IC50 [1]: > 20 µM
Structure (SMILES): COc1ccc2cc3[n+](cc2c1OC)CCc1c-3oc2ccccc12

IC50 [1]: 3.69 µM
IC50 [2]: 37.8 µM
IC50 [3]: 33.5 µM
IC50 [4]: 38.6 µM
Structure (SMILES): COc1cc2cc3[n+](cc2cc1OC)CCCOc1cc2c(cc1-3)OCO2
IC50 [5]: > 50 µM

IC50 [1]: 11.5 µM
Structure (SMILES): COc1cc2cc3[n+](cc2cc1OC)CCCSc1cc2c(cc1-3)OCO2

IC50 [1]: 7 µM
Structure (SMILES): C1=CC2C=C3c4cc5c(cc4NCC[N+]3=CC2S1)OCO5 (stereo not drawn)

IC50 [2]: > 30 µM
IC50 [3]: 1.7 µM
IC50 [4]: > 30 µM
Structure (SMILES): CNC(=O)Nc1ccc2c(c1)CC[C@@]21OC(=O)N(CC(=O)N(Cc2ccc(F)cc2)[C@@H](C)C(F)(F)F)C1=O [A-485]

IC50 [1]: 17.5 µM
Structure (SMILES): COc1cc2cc3[n+](cc2cc1OC)CCN(C(C)=O)c1cc2c(cc1-3)OCO2

IC50 [1]: > 20 µM
Structure (SMILES): COc1ccc2cc3[n+](cc2c1OC)CCc1ccsc1-3

IC50 [1]: 10.3 µM
Structure (SMILES): COc1ccc2cc3[n+](cc2c1OC)CCSc1cc2c(cc1-3)OCO2
